Experimental data from PMC8659148, “Drug Repurposing for Influenza Virus Polymerase Acidic (PA) Endonuclease Inhibitor” (Molecules, 2021).

Biological target: mutant PAN-I38T endonuclease (Influenza A virus, UniProt P03433, I38T)
Format: biochemical, influenza A type virus (H1N1)

| Structure (SMILES) | inhibition of the endonuclease activity of PAN-I38T (in words) |
| --- | --- |
| O=C1[C@@H]2[C@H]3CC[C@H](C3)[C@@H]2C(=O)N1C[C@@H]1CCCC[C@H]1CN1CCN(c2nsc3ccccc23)CC1 [lurasidone] | no inhibition |
| CC(C)(C)NC(=O)[C@@H]1C[C@@H]2CCCC[C@@H]2CN1C[C@@H](O)[C@H](Cc1ccccc1)NC(=O)[C@H](CC(N)=O)NC(=O)c1ccc2ccccc2n1 [saquinavir] | no inhibition |
| CO[C@H]1/C=C/O[C@@]2(C)Oc3c(C)c(O)c4c(O)c(c5c(nc6cc(C)ccn65)c4c3C2=O)NC(=O)/C(C)=C\C=C\[C@H](C)[C@H](O)[C@@H](C)[C@@H](O)[C@@H](C)[C@H](OC(C)=O)[C@@H]1C [rifaximin] | no inhibition |
| C[C@]12C=CC(=O)N[C@@H]1CC[C@@H]1[C@@H]2CC[C@]2(C)[C@@H](C(=O)Nc3cc(C(F)(F)F)ccc3C(F)(F)F)CC[C@@H]12 [dutasteride] | no inhibition |
| CS(=O)(=O)c1cccc(C[C@H](NC(=O)c2c(Cl)cc3c(c2Cl)CCN(C(=O)c2ccc4ccoc4c2)C3)C(=O)O)c1 [lifitegrast] | inhibitory effect |
